# Assay results reported in paper PMC10590383, “Repurposing conformational changes in ANL superfamily enzymes to rapidly generate biosensors for organic and amino acids” (Nature Communications, 2023).
# How the values were obtained:
# [1] = Dose–response curve of purified GECFINDERs with leucine; format: biochemical
# Method: (§1) Fig. 4 Engineering ligand specificity of GrsA-PheA for generating […]s. a The selectivity-conferring code of Phe and Leu A domains. b–f Dose–response curve of purified […]s with increasing concentrations of ligands in 100 mM Tris-HCl buffer (pH=7.5). All data shown are means ± S.D. (n = 3 biologically independent samples). g A series of […] reactions was tested to show the […]’s specificity with 20 proteinogenic amino acids. The values on the heatmap represent the ΔF/F0 value normalized to each […]’s maximal ΔF/F0 value ((ΔF/F0)/maximal ΔF/F0). The concentrations of 20 amino acids were 100 μM. The color indicates the average value of three independent biological replicates after 15 min. All data shown are means ± S.D. (n = 3 biologically independent samples). Source data are provided as a Source data file.
# (§2) The study conducted dose–response curve, substrate specificity, and fluorescent spectrum analyses in 100-mM Tris buffer (pH = 7.5), while pH stability experiments were performed in 100-mM Tris buffer at three different pH values (6.5, 7.5, and 8.5) at room temperature. […] protein at a concentration of 0.75 μM, various small molecule concentrations, 1 mM ATP, and 2.5 mM MgCl2 were used in the experiments. Fluorescent signals were detected using a Microplate Reader (Synergy H4, Bio Tek) at an excitation/emission wavelength of 460 nm/510 nm or 480 nm/510 nm. The dose-response curve was determined immediately after the addition of the analyte. The total duration of the measurement was 15 min, with readings taken at one-minute intervals. The dose-response curve was plotted using the fluorescence values obtained after achieving stability in the fluorescence signal. The dose-response curves were fitted using the logistic model LOGISTIC5 available in Origin 2021, which could provide a more adequate fit to asymmetric dose-response data[62],[63]. Excitation spectra were scanned from 300 to 540 nm with a step size of 5 nm, and the emission wavelength was set to 560 nm. Emission spectra were scanned from 470 to 700 nm with a step size of 5 nm, and the excitation wavelength was set to 450 nm. The thermal stability of […] was analyzed using the UNcle multifunctional protein stability analysis system. Measurements were performed in 20 mM MOPS buffer with 2 mM DTT at a sample concentration of 1 mg/mL. Absolute fluorescence quantum yields were measured using an absolute photoluminescence quantum yield spectrometer (FS5, Edinburgh).
# [2] = Substrate (ligand) specificity of […]s; format: biochemical
# Method: as §1
# Ligand specificity is an important biosensors feature. Generally, the NRPS A domains have high specificity for their substrates because they are the first “gatekeeper” of NRPSs and ensure that the correct monomers are activated and thioesterified[32],[33]. Therefore, we speculated that this property would be inherited by our […]s because the ligand-binding pockets were unchanged during the […] creation process. Twenty proteinogenic amino acids were used to test the ligand specificity of […]s. […] We also investigated the dependence of […]s on Mg^2+ and ATP (Supplementary Fig. 4). […] This phenomenon corroborates with the distinct conformational changes observed in Hinge A of Nt4CL2 (Mg^2++ATP) (PDB ID: 5BSM) and Nt4CL2 (Coumaroyl-AMP) (PDB ID: 5BST) reported in the literature (Supplementary Fig. 4k), where the direction of motion in hinge A differs. […] During the determination of quantum yield, we observed that the absolute quantum yield of the […] variants ranged from 0.3 to 0.6 upon addition of the respective substrates, which show no significant difference with that reported in literature. The specific values are provided in Supplementary Table 2.
# as §2
smiles,measurement,setting,value
CC(C)C[C@H](N)C(=O)O [Leu],"AVE, dose-response Fig. 4 b",[1]; substrate Leu 0.001 μM,-7.112e-17
same,"AVE, dose-response Fig. 4 b",[1]; substrate Leu 0.005 μM,0.003877
same,"AVE, dose-response Fig. 4 b",[1]; substrate Leu 0.01 μM,0.02311
same,"AVE, dose-response Fig. 4 b",[1]; substrate Leu 0.05 μM,0.04234
same,"AVE, dose-response Fig. 4 b",[1]; substrate Leu 0.1 μM,0.03637
same,"AVE, dose-response Fig. 4 b",[1]; substrate Leu 0.5 μM,0.02815
same,"AVE, dose-response Fig. 4 b",[1]; substrate Leu 1 μM,0.02962
same,"AVE, dose-response Fig. 4 b",[1]; substrate Leu 5 μM,0.0138
same,"AVE, dose-response Fig. 4 b",[1]; substrate Leu 10 μM,0.1049
same,"AVE, dose-response Fig. 4 b",[1]; substrate Leu 25 μM,0.1731
same,"AVE, dose-response Fig. 4 b",[1]; substrate Leu 50 μM,0.2052
same,"AVE, dose-response Fig. 4 b",[1]; substrate Leu 100 μM,0.2136
same,"AVE, dose-response Fig. 4 c",[1]; substrate Leu 0.5 μM,6.794e-17
same,"AVE, dose-response Fig. 4 c",[1]; substrate Leu 1 μM,0.0405
same,"AVE, dose-response Fig. 4 c",[1]; substrate Leu 2 μM,0.06186
same,"AVE, dose-response Fig. 4 c",[1]; substrate Leu 5 μM,0.1266
same,"AVE, dose-response Fig. 4 c",[1]; substrate Leu 10 μM,0.1121
same,"AVE, dose-response Fig. 4 c",[1]; substrate Leu 20 μM,0.1733
same,"AVE, dose-response Fig. 4 c",[1]; substrate Leu 50 μM,0.2857
same,"AVE, dose-response Fig. 4 c",[1]; substrate Leu 100 μM,0.4006
same,"AVE, dose-response Fig. 4 c",[1]; substrate Leu 200 μM,0.5877
same,"AVE, dose-response Fig. 4 c",[1]; substrate Leu 500 μM,0.7587
same,"AVE, dose-response Fig. 4 c",[1]; substrate Leu 750 μM,0.8241
same,"AVE, dose-response Fig. 4 c",[1]; substrate Leu 1000 μM,0.7953
same,"AVE, dose-response Fig. 4 d",[1]; substrate Leu 0.005 μM,-5.262e-17
same,"AVE, dose-response Fig. 4 d",[1]; substrate Leu 0.01 μM,0.03426
same,"AVE, dose-response Fig. 4 d",[1]; substrate Leu 0.1 μM,0.06576
same,"AVE, dose-response Fig. 4 d",[1]; substrate Leu 1 μM,0.08826
same,"AVE, dose-response Fig. 4 d",[1]; substrate Leu 5 μM,0.1792
same,"AVE, dose-response Fig. 4 d",[1]; substrate Leu 10 μM,0.2348
same,"AVE, dose-response Fig. 4 d",[1]; substrate Leu 50 μM,0.4576
same,"AVE, dose-response Fig. 4 d",[1]; substrate Leu 100 μM,0.5636
same,"AVE, dose-response Fig. 4 d",[1]; substrate Leu 200 μM,0.7427
same,"AVE, dose-response Fig. 4 d",[1]; substrate Leu 500 μM,0.9952
same,"AVE, dose-response Fig. 4 d",[1]; substrate Leu 750 μM,1.079
same,"AVE, dose-response Fig. 4 d",[1]; substrate Leu 1000 μM,1.107
same,"fluorescence response of GECFINDER, AVE of 3 repeats","[1]; Supplementary Fig. 3 a, Leu 0.001 μM",0
same,"fluorescence response of GECFINDER, AVE of 3 repeats","[1]; Supplementary Fig. 3 a, Leu 0.005 μM",0.02218
same,"fluorescence response of GECFINDER, AVE of 3 repeats","[1]; Supplementary Fig. 3 a, Leu 0.01 μM",0.03478
same,"fluorescence response of GECFINDER, AVE of 3 repeats","[1]; Supplementary Fig. 3 a, Leu 0.1 μM",0.05423
same,"fluorescence response of GECFINDER, AVE of 3 repeats","[1]; Supplementary Fig. 3 a, Leu 1 μM",0.08086
same,"fluorescence response of GECFINDER, AVE of 3 repeats","[1]; Supplementary Fig. 3 a, Leu 10 μM",0.1724
same,"fluorescence response of GECFINDER, AVE of 3 repeats","[1]; Supplementary Fig. 3 a, Leu 50 μM",0.3353
same,"fluorescence response of GECFINDER, AVE of 3 repeats","[1]; Supplementary Fig. 3 a, Leu 100 μM",0.4583
same,"fluorescence response of GECFINDER, AVE of 3 repeats","[1]; Supplementary Fig. 3 a, Leu 500 μM",0.754
same,"fluorescence response of GECFINDER, AVE of 3 repeats","[1]; Supplementary Fig. 3 a, Leu 1000 μM",0.8727
same,"fluorescence response of GECFINDER, AVE of 3 repeats","[1]; Supplementary Fig. 3 a, Leu 5000 μM",1.081
same,"fluorescence response of GECFINDER, AVE of 3 repeats","[1]; Supplementary Fig. 3 a, Leu 10000 μM",0.9665
same,"fluorescence response of GECFINDER, AVE of 3 repeats","[1]; Supplementary Fig. 3 b, Leu 0.001 μM",4.279e-17
same,"fluorescence response of GECFINDER, AVE of 3 repeats","[1]; Supplementary Fig. 3 b, Leu 0.005 μM",0.01278
same,"fluorescence response of GECFINDER, AVE of 3 repeats","[1]; Supplementary Fig. 3 b, Leu 0.01 μM",0.01795
same,"fluorescence response of GECFINDER, AVE of 3 repeats","[1]; Supplementary Fig. 3 b, Leu 0.1 μM",0.04976
same,"fluorescence response of GECFINDER, AVE of 3 repeats","[1]; Supplementary Fig. 3 b, Leu 1 μM",0.111
same,"fluorescence response of GECFINDER, AVE of 3 repeats","[1]; Supplementary Fig. 3 b, Leu 10 μM",0.3678
same,"fluorescence response of GECFINDER, AVE of 3 repeats","[1]; Supplementary Fig. 3 b, Leu 50 μM",0.7094
same,"fluorescence response of GECFINDER, AVE of 3 repeats","[1]; Supplementary Fig. 3 b, Leu 100 μM",0.9192
same,"fluorescence response of GECFINDER, AVE of 3 repeats","[1]; Supplementary Fig. 3 b, Leu 500 μM",1.615
same,"fluorescence response of GECFINDER, AVE of 3 repeats","[1]; Supplementary Fig. 3 b, Leu 1000 μM",1.882
same,"fluorescence response of GECFINDER, AVE of 3 repeats","[1]; Supplementary Fig. 3 b, Leu 5000 μM",2.296
same,"fluorescence response of GECFINDER, AVE of 3 repeats","[1]; Supplementary Fig. 3 b, Leu 10000 μM",2.333
same,"AVE of Repeat 1-3, sensor signal with ligand (Supplementary Fig. 7 c)","[2]; 1 mM ligand, Control AVE 12117.3",12093
same,"fluorescence response of GECFINDER to each substrate, AVE of 3 repeats","[2]; Supplementary Fig. 3 c, substrate specificity",-0.01092
